Measured values: patent US20240368122A1, “JAK2 INHIBITORS AND METHODS OF USE THEREOF” (RELAY THERAPEUTICS, INC., priority 2021, published 2024)

Legend:
[1] = target: T1, JAK2 JH2 WT (V536-D812) [W659A, W777A, F794H solubilizing mutations] (Homo sapiens, UniProt O60674, F794H/W659A/W777A); assay: Surface Plasmon Resonance (SPR) binding assay, JAK2 JH2 domain; details: SPR, JAK2 JH2 domain
T1 construct: **JAK2 JH2 WT (V536-D812) [W659A, W777A, F794H solubilizing mutations]; C-thrombin-avi-His6; thrombin cleavage site (C); His6 (C); purchased Biortus
How it was run: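 Kinetics came from 1:1 fits of single-cycle runs at 20 °C: four 3-fold dilutions from 5 uM for JH1 or 500 nM for JH2, 60 s association, and 300 s or 1200 s dissociation respectively. Protein was freshly captured per compound in the presence of 10 uM stabilizer compound, with running buffer of pH 7.5 HEPES/NaCl/glycerol/DTT plus 2% DMSO.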

JAK2 JH1 WT (T842-G1132) = target: T2, JAK2 JH1 WT (T842-G1132) (Homo sapiens, UniProt O60674); assay: Surface Plasmon Resonance (SPR) binding assay, JAK2 JH1 domain; details: SPR, JAK2 JH1 domain
T2 construct: *JAK2 JH1 WT (T842-G1132) N-His60-avi-TEV; His6 (N); TEV cleavage site (N); purchased Biortus
Method: Selected compounds of the present disclosure were tested in a Surface Plasmon Resonance (SPR) Assay to measure their binding kinetics and affinity for proteins of interest.
Prepare buffer: 50 mM HEPES pH 7.5, 150 mM NaCl, 0.05% (v/v) Tween, and 10% (v/v) glycerol were combined and pH was adjusted to 7.5, then filtered. 5 mM DTT, was added, and buffer without DMSO was reserved for compound resuspension. 2% (v/v) DMSO was added for assay buffer, and separately 1% DMSO was used to make buffer for resuspending compounds.
Prepare compounds: Using a Bravo liquid handler, 99 μL of 1% (v/v) DMSO assay buffer was added to 1 μL compounds in DMSO.
Run 8K Method: Biotin CAPture (CAP) chip surface was regenerated prior to run by: Inserting CAP chip into Biacore 8K, prime machine with assay buffer with 2% (v/v) DMSO; Setting instrument temperature to 20° C.; Conditioning surface with NaOH/GdnHCl reagents from CAP chip kit (60 seconds, 10 μL/min); and Capturing oligo-Streptavidin (SA) reagent from CAP kit (600 seconds, 1 μL/min), expected capture ˜2500 RU. JAK2 JH1 or JH2 protein was immobilized by preparing a sample of 0.5 uM JH1 or 0.4 uM JH2 protein diluted in assay buffer without DMSO and supplemented with 10 uM of a selected compound of the invention as a stabilizer (370 seconds, 5 uL/min), expected capture ˜1000 RU. Remaining biotin sites on SA were blocked with 1 uM biotin (30 seconds, 20 uL/min), then equilibrated for 1800 seconds at 100 uL/min. Compounds being assayed were run in single cycle kinetics: 4 doses with a top concentration of 5 uM (JH1) or 500 nM (JH2), dilution factor of 3, at 20° C., for a contact time of 60 seconds, and a dissociation time of 300 seconds (JH1) or 1200 seconds (JH2), at a flow rate of 30 uL/min. The surface was completely regenerated after each compound is run, and JH1 or JH2 protein was immobilized fresh prior to each new compound. Data were fitted kinetically with 1:1 binding model using Biacore Insight Evaluation Software.

[2] = tested on: TF1 JAK2 V617F STAT3 reporter; assay: Cellular TF1 STAT3 assay (luciferase reporter), JAK2 V617F; type: cell-based; details: TF1 JAK2 V617F, read-out: Cell PD-TF1 JAK2 V617F STAT3 (IC50)
How it was run: (§1)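 Compounds were dispensed as 1000× DMSO stocks (10 mM top, 1:3 steps), then V617F JAK2 TF1 cells carrying a STAT3 or STAT5 luciferase reporter were added. After 18-20 h at 37 °C, ONE-glo reagent was added and luminescence measured.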

[3] = tested on: TF1 JAK2 V617F STAT5 reporter; assay: Cellular TF1 STAT5 assay (luciferase reporter), JAK2 V617F; type: cell-based; details: TF1 JAK2 V617F, read-out: Cell PD TF1 V617F STAT5 (IC50)
How it was run: as §1

T1 sequence (O60674 536-812 W659A/W777A/F794H): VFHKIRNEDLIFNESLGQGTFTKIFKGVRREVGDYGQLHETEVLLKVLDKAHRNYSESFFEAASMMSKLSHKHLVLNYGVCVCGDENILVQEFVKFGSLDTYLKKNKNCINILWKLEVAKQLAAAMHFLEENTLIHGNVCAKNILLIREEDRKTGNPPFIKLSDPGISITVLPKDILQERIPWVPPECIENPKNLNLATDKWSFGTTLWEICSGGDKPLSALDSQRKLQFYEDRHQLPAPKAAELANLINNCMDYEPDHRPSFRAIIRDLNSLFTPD
T2 sequence (O60674 842-1132): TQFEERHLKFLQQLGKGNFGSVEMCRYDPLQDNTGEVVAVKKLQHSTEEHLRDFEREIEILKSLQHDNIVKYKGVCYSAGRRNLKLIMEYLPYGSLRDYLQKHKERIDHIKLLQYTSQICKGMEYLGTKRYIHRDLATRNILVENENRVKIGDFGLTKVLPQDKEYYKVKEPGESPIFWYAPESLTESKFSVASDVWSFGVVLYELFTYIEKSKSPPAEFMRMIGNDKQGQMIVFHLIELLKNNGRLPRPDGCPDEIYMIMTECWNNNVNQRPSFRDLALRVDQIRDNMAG

## CNC(=O)c1nnc(NC(=O)C2CC2)cc1Nc1cccc(-c2ccc(C(=O)NCc3cccn(C)c3=O)cc2)c1OC [Compound 1]
[1]
  Kd: 0.01 to 10 nM
JAK2 JH1 WT (T842-G1132)
  Kd: 500 to 5000 nM
[2]
  IC50: 500 to 5000 nM
[3]
  IC50: 500 to 5000 nM

## CNC(=O)c1nnc(NC(=O)C2CC2)cc1Nc1cccc(-c2ccc(C(=O)N(C)Cc3cccn(C)c3=O)cc2)c1OC [Compound 3, 6-(cyclopropanecarboxamido)-4-((2-methoxy-4′-(methyl((1-methyl-2-oxo-1,2-dihydropyridin-3-yl)methyl)carbamoyl)-[1,1′-biphenyl]-3-yl)amino)-N-methylpyridazine-3-carboxamide]
[1]
  Kd: 0.01 to 10 nM
JAK2 JH1 WT (T842-G1132)
  Kd: 5000 to 100000 nM
[2]
  IC50: 500 to 5000 nM
[3]
  IC50: 500 to 5000 nM

## CNC(=O)c1nnc(NC(=O)C2CC2)cc1Nc1cccc(-c2ccc(C(=O)NCc3cccn(C)c3=O)nc2)c1OC [Compound 4]
[1]
  Kd: 0.01 to 10 nM
JAK2 JH1 WT (T842-G1132)
  Kd: 5000 to 100000 nM
[2]
  IC50: 500 to 5000 nM
[3]
  IC50: 500 to 5000 nM

## CNC(=O)c1nnc(NC(=O)C2CC2)cc1Nc1cccc(-c2ncc(NC(=O)Cc3cccn(C)c3=O)cn2)c1OC [Compound 6]
[1]
  Kd: 0.01 to 10 nM
JAK2 JH1 WT (T842-G1132)
  Kd: 500 to 5000 nM
[2]
  IC50: 5000 to 100000 nM
[3]
  IC50: 5000 to 100000 nM

## CNC(=O)c1nnc(NC(=O)C2CC2)cc1Nc1cccc(-c2ccc(C(=O)NCc3cccn(C)c3=O)nn2)c1OC [Compound 8]
[1]
  Kd: 0.01 to 10 nM
JAK2 JH1 WT (T842-G1132)
  Kd: 5000 to 100000 nM
[2]
  IC50: 500 to 5000 nM
[3]
  IC50: 5000 to 100000 nM

## CNC(=O)c1nnc(NC(=O)C2CC2)cc1Nc1cccc(-c2cnc(C(=O)NCc3cccn(C)c3=O)nc2)c1OC [Compound 9]
[1]
  Kd: 0.01 to 10 nM
JAK2 JH1 WT (T842-G1132)
  Kd: 500 to 5000 nM
[2]
  IC50: 500 to 5000 nM
[3]
  IC50: 5000 to 100000 nM

## CNC(=O)c1nnc(NC(=O)C2CC2)cc1Nc1cccc(-c2ccc(C(=O)NCc3cccn(C)c3=O)c(C)c2)c1OC [Compound 10]
[1]
  Kd: 0.01 to 10 nM
JAK2 JH1 WT (T842-G1132)
  Kd: 5000 to 100000 nM
[2]
  IC50: 500 to 5000 nM
[3]
  IC50: 500 to 5000 nM

## CNC(=O)c1nnc(NC(=O)C2CC2)cc1Nc1cccc(-c2ccc(C(=O)N(C)Cc3cc(C#N)ccn3)cc2)c1OC [Compound 11]
[1]
  Kd: 0.01 to 10 nM
JAK2 JH1 WT (T842-G1132)
  Kd: 5000 to 100000 nM
[2]
  IC50: 500 to 5000 nM
[3]
  IC50: 500 to 5000 nM

## CNC(=O)c1nnc(NC(=O)C2CC2)cc1Nc1cccc(-c2ccc(C(=O)N(C)Cc3cnn(C)c3)nc2)c1OC [Compound 17]
[1]
  Kd: 0.01 to 10 nM
JAK2 JH1 WT (T842-G1132)
  Kd: 5000 to 100000 nM
[2]
  IC50: 50 to 500 nM
[3]
  IC50: 50 to 500 nM

## CNC(=O)c1nnc(NC(=O)C2CC2)cc1Nc1cccc(-c2ccc(C(=O)N(C)Cc3cc(C#N)ccn3)nc2)c1OC [Compound 18]
[1]
  Kd: 0.01 to 10 nM
JAK2 JH1 WT (T842-G1132)
  Kd: 5000 to 100000 nM
[2]
  IC50: 50 to 500 nM
[3]
  IC50: 50 to 500 nM

## CNC(=O)c1nnc(NC(=O)C2CC2)cc1Nc1cccc(-c2ccc(C(=O)N(C)Cc3ccn(C)n3)nc2)c1OC [Compound 26]
[1]
  Kd: 0.01 to 10 nM
JAK2 JH1 WT (T842-G1132)
  Kd: 5000 to 100000 nM
[2]
  IC50: 50 to 500 nM
[3]
  IC50: 50 to 500 nM

## CNC(=O)c1nnc(NC(=O)C2CC2)cc1Nc1cccc(-c2cnc(C(=O)N(C)Cc3cc(C#N)ccn3)c(F)c2)c1OC [Compound 28]
[1]
  Kd: 0.01 to 10 nM
JAK2 JH1 WT (T842-G1132)
  Kd: 5000 to 100000 nM
[2]
  IC50: 50 to 500 nM
[3]
  IC50: 50 to 500 nM

## CNC(=O)c1nnc(NC(=O)C2CC2)cc1Nc1cccc(-c2ccc(C(=O)N(C)Cc3cccnc3)nc2)c1OC [Compound 30]
[1]
  Kd: 0.01 to 10 nM
JAK2 JH1 WT (T842-G1132)
  Kd: 5000 to 100000 nM
[2]
  IC50: 50 to 500 nM
[3]
  IC50: 50 to 500 nM

## CNC(=O)c1nnc(NC(=O)C2CC2)cc1Nc1cccc(-c2cnc(C(=O)N(C)Cc3cc(C#N)ccn3)cc2C)c1OC [Compound 32]
[1]
  Kd: 0.01 to 10 nM
JAK2 JH1 WT (T842-G1132)
  Kd: 5000 to 100000 nM
[2]
  IC50: 500 to 5000 nM
[3]
  IC50: 500 to 5000 nM

## CNC(=O)c1nnc(NC(=O)C2CC2)cc1Nc1ccc(C)c(-c2ccc(C(=O)N(C)Cc3cc(C#N)ccn3)nc2)c1OC [Compound 33]
[1]
  Kd: 0.01 to 10 nM
JAK2 JH1 WT (T842-G1132)
  Kd: 5000 to 100000 nM
[2]
  IC50: 10 to 50 nM
[3]
  IC50: 10 to 50 nM
